Experimental data from ChEMBL document CHEMBL4390686, “Design, Synthesis, and Pharmacokinetic Evaluation of Phosphate and Amino Acid Ester Prodrugs for Improving the Oral Bioavailability of the HIV-1 Protease Inhibitor Atazanavir” (J Med Chem, 2019).
pEC50, pIC50: −log10 of the molar value. Values after ≈ are worked out from the molar mass of the structure shown.

Tests used:
[1] = Aqueous solubility of the compound in pH 3 buffer by RP-UPLC analysis; assay type: physicochemical
[2] = Prodrug conversion in rat hepatocytes assessed as pseudo first order rate constant for atazanavir formation at 1 uM in absence of esterase inhibitor PMSF/CYP450 inhibitor ABT; assay type: ADME, cell-based, Hepatocyte
[3] = test system: Human immunodeficiency virus 1
Description: Antiviral activity against HIV1 NL4-3 infected in human MT2 cells assessed as reduction in viral yield measured after 4 days by EnduRen live cell substrate based luciferase reporter gene assay

[4] = target: T1, UDP-glucuronosyltransferase 1A1 (Homo sapiens, UniProt P22309); assay: Inhibition of UGT1A1 in human liver microsomes using beta-estradiol as substrate preincubated for 5 mins followed by substrate addition and measured after 40 mins by LC-MS/MS analysis; assay type: ADME
T1 sequence (P22309 whole entry): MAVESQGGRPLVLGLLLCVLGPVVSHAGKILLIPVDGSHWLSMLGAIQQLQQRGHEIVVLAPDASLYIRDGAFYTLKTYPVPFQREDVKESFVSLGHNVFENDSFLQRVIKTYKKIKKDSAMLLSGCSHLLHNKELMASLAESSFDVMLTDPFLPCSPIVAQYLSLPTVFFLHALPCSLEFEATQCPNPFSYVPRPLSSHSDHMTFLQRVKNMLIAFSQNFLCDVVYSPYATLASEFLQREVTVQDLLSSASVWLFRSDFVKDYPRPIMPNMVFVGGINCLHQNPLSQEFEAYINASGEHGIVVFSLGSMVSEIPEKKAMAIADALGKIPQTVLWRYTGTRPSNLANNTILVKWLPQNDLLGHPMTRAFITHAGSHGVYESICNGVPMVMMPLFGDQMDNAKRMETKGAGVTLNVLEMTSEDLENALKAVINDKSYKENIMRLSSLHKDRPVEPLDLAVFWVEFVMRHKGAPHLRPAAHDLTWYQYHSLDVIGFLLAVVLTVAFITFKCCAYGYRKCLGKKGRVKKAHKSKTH

[5] = Aqueous solubility of the compound in pH 4 citrate buffer by RP-UPLC analysis; assay type: physicochemical
[6] = Cmin in cannulated Sprague-Dawley rat assessed as atazanavir level at 3 mg/kg equiv of atazanavir administered orally measured after 24 hrs by UPLC/MS/MS analysis; assay type: ADME, organism-based; conditions: in vivo, po, BLD = below limit of detection
[7] = Aqueous solubility of the compound in pH 5 buffer by RP-UPLC analysis; assay type: physicochemical
[8] = Elimination half life in rat hepatocytes at 1 uM in presence of esterase inhibitor PMSF; assay type: ADME, cell-based, Hepatocyte; conditions: with PMSF (esterase inhibitor), read-out: beta t1/2
[9] = rat, in vivo, po, 3 mg/kg
[10] = Total AUC in cannulated Sprague-Dawley rat assessed as atazanavir level at 30 mg/kg equiv of atazanavir administered orally by UPLC/MS/MS analysis relative to atazanavir alone; assay type: ADME, organism-based; conditions: in vivo, po
[11] = in vitro; conditions: human, Caco-2
Description: Apparent permeability across apical to basolateral side in human Caco2 cells at 2 uM

[12] = Aqueous solubility of the compound in FaSSIF by RP-HPLC analysis; assay type: physicochemical
[13] = Cmin in cannulated Sprague-Dawley rat assessed as atazanavir level at 6 mg/kg equiv of atazanavir administered orally measured after 24 hrs by UPLC/MS/MS analysis; assay type: ADME, organism-based; conditions: in vivo, po, BLD = below limit of detection
[14] = Half life in rat whole blood at 1 uM by UPLC-MS/MS analysis; assay type: ADME, tissue-based
[15] = target: Protease (Human immunodeficiency virus 1, UniProt Q9YQ12)
Protease, sequence (Q9YQ12 whole entry): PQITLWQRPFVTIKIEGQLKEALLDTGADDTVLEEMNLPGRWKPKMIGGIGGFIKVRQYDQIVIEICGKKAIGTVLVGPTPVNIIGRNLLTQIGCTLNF
Description: Inhibition of HIV1 protease activity

[16] = target: T1, UDP-glucuronosyltransferase 1A1; assay: Inhibition of recombinant human UGT1A1 using bilirubin as substrate preincubated for 5 mins followed by substrate addition and measured after 40 mins by LC-MS/MS analysis; assay type: ADME
[17] = test system: UGT1A1; assay: Ratio of test compound IC50 to atazanavir IC50 for recombinant cynomolgus monkey UGT1A1; assay type: ADME, Macaca fascicularis; conditions: read-out: Ratio IC50
[18] = physchem; conditions: HCl buffer, pH 1
Description: Aqueous solubility of the compound in pH 1 HCl buffer by RP-UPLC analysis

[19] = target: T2, UGT1A1 (Homo sapiens, UniProt P22309); assay: Ratio of test compound IC50 to atazanavir IC50 for UGT1A1 in human liver microsomes; assay type: ADME; conditions: read-out: Ratio IC50
T2 sequence (P22309 whole entry): T1 sequence (P22309 whole entry)

[20] = Cmax in cannulated Sprague-Dawley rat assessed as atazanavir level at 30 mg/kg equiv of atazanavir administered orally by UPLC/MS/MS analysis; assay type: ADME, organism-based; parameters: dose 30 mg/kg, route oral; conditions: in vivo, po
[21] = physchem; conditions: acetate buffer, pH 4
Description: Aqueous solubility of the compound in pH 4 acetate buffer by RP-UPLC analysis

[22] = Elimination half life in rat hepatocytes at 1 uM in presence of esterase inhibitor PMSF/CYP450 inhibitor ABT; assay type: ADME, cell-based, Hepatocyte; conditions: read-out: beta t1/2
[23] = Ratio of test compound to atazanavir aqueous solubility in pH 3 buffer by RP-UPLC analysis; assay type: physicochemical
[24] = rat, in vivo, po, 3 mg/kg; remark: listed apart in the source
Description: AUClast in cannulated Sprague-Dawley rat assessed as atazanavir level at 3 mg/kg equiv of atazanavir administered orally by UPLC/MS/MS analysis

[25] = target: T3, UGT1A1 (Rattus norvegicus, UniProt Q64550); assay: Ratio of test compound IC50 to atazanavir IC50 for UGT1A1 in rat liver microsomes; assay type: ADME; conditions: read-out: Ratio IC50
T3 sequence (Q64550 whole entry): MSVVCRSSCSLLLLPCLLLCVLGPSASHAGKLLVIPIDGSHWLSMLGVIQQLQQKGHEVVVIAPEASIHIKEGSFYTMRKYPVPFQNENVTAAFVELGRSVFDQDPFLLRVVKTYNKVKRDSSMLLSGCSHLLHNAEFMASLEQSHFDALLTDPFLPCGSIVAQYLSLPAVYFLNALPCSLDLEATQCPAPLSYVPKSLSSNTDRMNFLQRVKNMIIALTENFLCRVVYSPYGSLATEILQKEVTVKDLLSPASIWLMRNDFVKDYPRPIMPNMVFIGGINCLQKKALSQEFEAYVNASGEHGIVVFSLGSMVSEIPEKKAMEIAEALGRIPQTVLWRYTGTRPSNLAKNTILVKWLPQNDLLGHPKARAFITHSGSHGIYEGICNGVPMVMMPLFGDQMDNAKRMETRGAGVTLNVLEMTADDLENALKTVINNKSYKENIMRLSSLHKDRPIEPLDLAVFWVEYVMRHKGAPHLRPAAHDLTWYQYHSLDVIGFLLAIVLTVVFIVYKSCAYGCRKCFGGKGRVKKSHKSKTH

[26] = Drug metabolism in cannulated Sprague-Dawley rat assessed as prodrug to atazanavir ratio at 30 mg/kg equiv of atazanavir administered orally by UPLC/MS/MS analysis; assay type: ADME, organism-based; conditions: in vivo, po
[27] = Cmax in cannulated Sprague-Dawley rat assessed as atazanavir level at 6 mg/kg equiv of atazanavir administered orally by UPLC/MS/MS analysis; assay type: ADME, organism-based; parameters: dose 6 mg/kg, route oral; conditions: in vivo, po
[28] = Ratio of test compound to atazanavir aqueous solubility in pH 4 acetate buffer by RP-UPLC analysis; assay type: physicochemical
[29] = physchem; conditions: 30% CH3CN/HCl buffer, pH 1
Description: Half life in pH 1 30%CH3CN/HCl buffer at 50 mM by RP-UPLC analysis

[30] = AUClast in cannulated Sprague-Dawley rat assessed as atazanavir level at 6 mg/kg equiv of atazanavir administered orally by UPLC/MS/MS analysis; assay type: ADME, organism-based; parameters: dose 6 mg/kg, time 0 - last, route oral; conditions: in vivo, po

COC(=O)N[C@H](C(=O)N[C@@H](Cc1ccccc1)[C@H](CN(Cc1ccc(-c2ccccn2)cc1)NC(=O)[C@@H](NC(=O)OC)C(C)(C)C)OC(=O)[C@@H](N)Cc1ccccc1)C(C)(C)C
solubility [1]: > 3200 µg/mL
K [2]: 0.0164 min⁻¹
pEC50 [3]: 5.90 to 9.05
pIC50 [4]: 5.60
solubility [5]: > 1100 µg/mL
Cmin [6]: Bld
solubility [7]: 1300 µg/mL (≈ 1530 µM)
half-life at 1 µM [8]: 1.28 h
Tmax [9]: 0.5 h
fold change (FC) [10]: 65.3
Papp A→B at 2 µM [11]: < 1.5 ×10⁻⁶ cm/s
solubility [12]: 130 µg/mL (≈ 153 µM)
Cmin [13]: Bld
half-life at 1 µM [14]: > 2 h
pIC50 [15]: 5.94 to 8.40
pIC50 [16]: 5.55
selectivity ratio [17]: 17
solubility [18]: > 1500 µg/mL
selectivity ratio [19]: 4.2
Cmax [20]: 4720 nM
solubility [21]: 1100 to 4100 µg/mL (≈ 1290 to 4810 µM)
half-life at 1 µM [22]: > 2 h
Ratio [23]: 114
AUClast [24]: 0.573 µM·h
selectivity ratio [25]: 5.7
Ratio [26]: 0.3
Cmax [27]: 550 nM
Ratio [28]: 4100
half-life at 50000 µM [29]: > 500 h
AUClast [30]: 0.913 µM·h
